Data set [1] in a line: Cytotoxicity against human HeLa cells assessed as reduction in cell viability after 48 hrs by SF-based cell counting method. Format: functional.
Data set [2] in a line: Inhibition of Drosophila Kinesin-1 assessed as reduction in microtubule-stimulated ATPase activity preincubated for 15 mins followed by microtubule addition in the presence of ATP after 6 mins by malachite green method.
The target in data set [3] is T1, Kinesin-like protein KIF11 (Homo sapiens, UniProt P52732).
T1 sequence (P52732 whole entry): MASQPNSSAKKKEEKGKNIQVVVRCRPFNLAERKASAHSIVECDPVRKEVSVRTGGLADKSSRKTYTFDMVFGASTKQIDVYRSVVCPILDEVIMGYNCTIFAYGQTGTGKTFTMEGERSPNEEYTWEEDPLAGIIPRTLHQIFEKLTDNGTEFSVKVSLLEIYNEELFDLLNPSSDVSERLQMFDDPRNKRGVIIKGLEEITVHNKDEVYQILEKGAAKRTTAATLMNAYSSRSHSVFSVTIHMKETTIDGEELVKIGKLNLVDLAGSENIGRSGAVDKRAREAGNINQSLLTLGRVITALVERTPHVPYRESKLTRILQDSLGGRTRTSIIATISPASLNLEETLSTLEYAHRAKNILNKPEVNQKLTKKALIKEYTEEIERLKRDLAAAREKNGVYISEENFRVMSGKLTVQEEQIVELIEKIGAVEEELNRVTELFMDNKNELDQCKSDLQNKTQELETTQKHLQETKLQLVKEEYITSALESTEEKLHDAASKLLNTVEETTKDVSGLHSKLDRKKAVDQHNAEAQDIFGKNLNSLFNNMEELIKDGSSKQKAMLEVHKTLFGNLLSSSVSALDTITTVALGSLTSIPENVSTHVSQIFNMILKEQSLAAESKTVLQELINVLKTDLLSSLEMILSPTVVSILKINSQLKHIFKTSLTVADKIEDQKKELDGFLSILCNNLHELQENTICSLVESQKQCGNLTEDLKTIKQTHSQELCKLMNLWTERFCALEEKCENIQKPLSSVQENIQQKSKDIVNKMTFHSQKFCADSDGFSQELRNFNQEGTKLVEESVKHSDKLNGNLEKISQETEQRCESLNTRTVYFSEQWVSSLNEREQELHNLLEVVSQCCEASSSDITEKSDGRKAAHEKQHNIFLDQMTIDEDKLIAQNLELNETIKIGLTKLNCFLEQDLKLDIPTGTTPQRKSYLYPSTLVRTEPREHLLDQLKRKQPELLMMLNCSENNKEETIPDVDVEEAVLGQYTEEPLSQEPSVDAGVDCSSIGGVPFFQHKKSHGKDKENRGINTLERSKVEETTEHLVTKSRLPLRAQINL
Kind of data set: Inhibition of wild type eXact-tagged human Eg5 motor domain (1 to 368 residues) expressed in Escherichia coli BL21(DE3) assessed as reduction in microtubule-stimulated ATPase activity preincubated for 15 mins followed by microtubule addition in the presence of ATP after 6 mins by malachite green method.

Data set [4] addresses T2, Broad substrate specificity ATP-binding cassette transporter ABCG2 (Homo sapiens, UniProt Q9UNQ0).
T2 sequence (Q9UNQ0 whole entry): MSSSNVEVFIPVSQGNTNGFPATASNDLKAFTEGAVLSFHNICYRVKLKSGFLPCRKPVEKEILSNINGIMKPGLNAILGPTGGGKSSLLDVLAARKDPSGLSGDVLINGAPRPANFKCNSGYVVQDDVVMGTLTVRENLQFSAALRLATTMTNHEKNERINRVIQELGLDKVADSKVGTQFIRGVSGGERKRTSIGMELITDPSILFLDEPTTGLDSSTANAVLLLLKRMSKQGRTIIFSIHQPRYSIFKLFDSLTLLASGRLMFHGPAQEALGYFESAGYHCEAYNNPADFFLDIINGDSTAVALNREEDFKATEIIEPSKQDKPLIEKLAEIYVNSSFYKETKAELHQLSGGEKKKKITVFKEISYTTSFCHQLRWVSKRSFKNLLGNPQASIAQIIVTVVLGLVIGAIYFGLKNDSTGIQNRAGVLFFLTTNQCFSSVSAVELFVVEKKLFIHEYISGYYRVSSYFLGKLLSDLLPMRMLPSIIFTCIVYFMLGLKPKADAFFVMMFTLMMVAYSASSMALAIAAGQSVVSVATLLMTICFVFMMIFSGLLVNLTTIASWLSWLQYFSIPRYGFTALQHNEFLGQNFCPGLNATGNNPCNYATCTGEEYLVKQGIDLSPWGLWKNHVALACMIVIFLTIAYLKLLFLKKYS
Kind of data set: Inhibition of BCRP in human K562 cells assessed as potentiation of SN38-mediated growth inhibition at 3 uM after 4 days by coulter counter method. To be noted: k562, 96 h. The class given is cell-based.

In data set [5] the target is T2, Broad substrate specificity ATP-binding cassette transporter ABCG2. Description: Inhibition of BCRP (unknown origin)-dependent ATPase activity at 50 uM after 30 mins by malachite green method. To be noted: 0.5 h.
Data set [6] in a line: Cytotoxicity against human Jurkat cells. Format: functional, cell-based.
The nature of data set [7]: Cytotoxicity against human HeLa cells. Format: functional, cell-based.
Data set [8] in a line: Cytotoxicity against human MCF7 cells. Format: functional, cell-based.
The nature of data set [9]: Cytotoxicity against human HT-29 cells. Format: functional, cell-based.

Bounds are passed on as bounds.

For the compound `CC(C)(O)[C@@H]1CC(=O)[C@]2(C)[C@H](CC[C@@]3(C)[C@H]2CC[C@H]2Cc4c([nH]c5ccccc45)[C@@]23C)O1`, the IC50 was 2.9 µM in [1], greater than 100 µM in data set [2] and 16.5 µM in data set [3].
As to `CC(C)=C[C@H]1c2[nH]c3ccccc3c2C[C@H]2C(=O)N3CCC[C@H]3C(=O)N21` [DEMETHOXYFUMITREMORGIN C], the “inhibition (INH)” value in data set [4] and in [5] was “Active” in each case.
On to `CC(C)(O)[C@@H]1C[C@@H](O)[C@]2(C)[C@H](CC[C@@]3(C)[C@H]2CC[C@H]2Cc4c([nH]c5ccccc45)[C@@]23C)O1` [TERPENDOLE E], for which the IC50 in data set [1] is 12.1 µM; in data set [2], greater than 100 µM; in data set [3], 34.7 µM.
Turning to `COc1ccc2c3c(n(CC=C(C)C)c2c1)[C@H](C=C(C)C)N1C(=O)[C@@H]2CCCN2C(=O)[C@]1(O)[C@H]3O`, the IC50 in [6], in data set [7], in [8] and in data set [9] was 5 to 15 µM each time. Moreover, the “inhibition (INH)” value in [4] and in data set [5] was “Active” each time.
With `COc1ccc2c3c4n(c2c1)[C@@H](C=C(C)C)OOC(C)(C)C[C@@H]4N1C(=O)[C@@H]2CCCN2C(=O)[C@]1(O)[C@H]3O`, the IC50 in data set [6], in data set [7], in [8] and in data set [9] was 20 to 30 µM throughout. The “inhibition (INH)” value in [4] and in [5] was “Active” in each case.
Turning to `COc1ccc2c3c([nH]c2c1)[C@H](C=C(C)C)N1C(=O)[C@@H]2CCCN2C(=O)[C@@H]1C3` [FUMITREMORGIN], the “inhibition (INH)” value in data set [4] and in data set [5] was “Active” in each case.
With `COc1ccc2c3c([nH]c2c1)[C@H](C=C(C)C)N1C(=O)[C@@H]2CCCN2C(=O)[C@]1(O)[C@H]3O`, the “inhibition (INH)” value in data set [4] and in data set [5] was “Active” each time.

Source of the values: ChEMBL document CHEMBL3875184, “Biosynthetic approaches to creating bioactive fungal metabolites: Pathway engineering and activation of secondary metabolism” (Bioorg Med Chem Lett, 2016).
